The target of this experiment is Serine/threonine-protein phosphatase 5 (Homo sapiens) (UniProt P53041). Nature of the experiment: PP5 inhibitor potency, OMFP cleavage, dose response, biochemical, fluorescence, powder samples, fifth round (AID 624432). To be noted: purified PP5c, OMFP dephosphorylation.

Active and inactive are the calls of the source.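 How the source made its calls: active means compounds whose fitted IC50 is below 25 µM; inactive means the rest.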

Chain of Serine/threonine-protein phosphatase 5 (Homo sapiens) (P53041 whole entry, looked up): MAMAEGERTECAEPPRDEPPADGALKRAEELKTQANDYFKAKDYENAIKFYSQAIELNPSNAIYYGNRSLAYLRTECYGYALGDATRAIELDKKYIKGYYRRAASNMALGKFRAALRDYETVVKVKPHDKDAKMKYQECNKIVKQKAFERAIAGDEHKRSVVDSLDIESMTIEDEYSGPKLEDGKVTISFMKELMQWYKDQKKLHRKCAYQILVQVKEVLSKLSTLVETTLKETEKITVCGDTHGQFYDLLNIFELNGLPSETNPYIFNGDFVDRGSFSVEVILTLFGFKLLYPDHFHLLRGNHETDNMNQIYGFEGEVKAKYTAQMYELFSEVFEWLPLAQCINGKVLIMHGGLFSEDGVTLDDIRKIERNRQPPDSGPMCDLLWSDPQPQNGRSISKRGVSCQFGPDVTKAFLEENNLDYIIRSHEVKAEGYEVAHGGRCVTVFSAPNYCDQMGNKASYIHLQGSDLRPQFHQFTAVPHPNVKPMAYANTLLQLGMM

For orientation: IC50 means the concentration that gives 50% inhibition. In the case of `Cc1cccc(C)c1-c1n[nH]nc1C(=O)O`, the IC50 entry was “inactive”. As for `O=C(O)c1n[nH]nc1-c1ccccc1C(F)(F)F`, the figure is > 1000 µM (inactive).

These data come from PubChem BioAssay AID624432 (The Scripps Research Institute Molecular Screening Center, 2012).
